Source: PubChem BioAssay (NCI)
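Cultured in 96-well plates, cells were exposed to test compound for 48 hours across five concentrations. The concentration for 50% growth inhibition is given as GI50. TGI marks complete inhibition of growth.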

Tests used:
Assay in all cases: DTP human tumour cell line panel, 48 h
M14 melanoma = tested on: M14 melanoma
EKVX NSCLC = tested on: EKVX NSCLC
NCI-H23 lung = tested on: NCI-H23 lung
UACC-257 melanoma = tested on: UACC-257 melanoma
KM12 colon = tested on: KM12 colon
OVCAR-5 ovarian = tested on: OVCAR-5 ovarian
CCRF-CEM leukemia = tested on: CCRF-CEM leukemia
SF-268 CNS = tested on: SF-268 CNS
U251 CNS = tested on: U251 CNS
NCI/ADR-RES ovarian = tested on: NCI/ADR-RES ovarian

SMILES	TGI (M14 melanoma) [µM]	TGI (EKVX NSCLC) [µM]	TGI (NCI-H23 lung) [µM]	TGI (UACC-257 melanoma) [µM]	TGI (KM12 colon) [µM]	TGI (OVCAR-5 ovarian) [µM]	TGI (CCRF-CEM leukemia) [µM]	TGI (SF-268 CNS) [µM]	TGI (U251 CNS) [µM]	TGI (NCI/ADR-RES ovarian) [µM]	GI50 (EKVX NSCLC) [µM]	GI50 (UACC-257 melanoma) [µM]	GI50 (KM12 colon) [µM]	GI50 (OVCAR-5 ovarian) [µM]	GI50 (CCRF-CEM leukemia) [µM]	GI50 (NCI/ADR-RES ovarian) [µM]
COc1cc2c(cc1C)NC(=O)/C2=C/c1c(Cl)[nH]c2cc(C)c(OC)cc12	13.7	22.8	11.6	23.7	15.5	25.8	5.16	18.7	15.3	13.5	–	–	–	–	–	–
c1ccc(Cc2cccc3cc(-c4ccc(-c5ccccc5)cc4)[nH]c23)cc1	> 100	> 100	> 100	> 100	> 100	> 100	> 100	> 100	> 100	> 100	–	–	–	–	–	–
O=[N+]([O-])c1cc2n[nH]nc2c2nonc12	47.4	> 100	83.3	63	> 100	76.5	59.9	> 100	> 100	> 100	–	–	–	–	–	–
CCN(CC)CCN1C(=O)c2cccc3c(-c4ccc5c(c4)ncn5C4CCCCC4)ccc(c23)C1=O	–	3.18	–	3.74	3.2	4.04	11.6	–	–	4.26	1.32	2.23	1.52	1.72	1.43	1.45
O=c1oc2ncccc2n1Cc1ccc([N+](=O)[O-])cc1	> 100	> 100	> 100	> 100	> 100	> 100	> 100	> 100	> 100	> 100	–	–	–	–	–	–
COC1/C=C\C=C(/C)C(=O)NC2=CC(=O)C=C(C2=O)C(OC)C(C)CC(OC)C(OC)C(C)/C=C(/C)C1OC(N)=O (stereo not given)	–	20.9	16	19.6	20.1	28.8	1.85	26.6	25.8	21.8	–	–	–	–	–	–
CSCCC(NC(=O)C(Cc1ccccc1)NC(=O)CNC(=O)CNC(=O)C(N)Cc1ccc(O)cc1)C(=O)O (stereo not given)	–	> 100	> 100	> 100	> 100	> 100	> 100	> 100	> 100	> 100	–	–	–	–	–	–
C=CCn1c2ccccc2c2c(C)c3cnccc3c(C)c21	–	66.1	45.3	41.9	83.9	69.9	24.5	88.7	81.3	34.4	–	–	–	–	–	–
Cc1nn2c(N)cc(=O)nc2nc1/C=C/c1ccc(N(C)C)cc1	> 100	> 100	> 100	> 100	> 100	> 100	2.41	> 100	> 100	> 100	–	–	–	–	–	–
N#CS/C(C(Cl)=C(Cl)Cl)=C(/Cl)[N+](=O)[O-]	2.79	6.76	7.95	3.79	32.4	–	1.18	18.9	30	> 28.1	–	–	–	–	–	–
CS(C)(=O)=N/C=C\C(=O)C(Cl)(Cl)Cl	> 100	> 100	> 100	> 100	> 100	> 100	> 100	> 100	> 100	> 100	–	–	–	–	–	–
Cn1c(-c2ccccc2)cc(-c2ccc3c(c2)OCO3)c1-c1cccs1	> 100	> 100	> 100	> 100	> 100	> 100	> 100	> 100	> 100	> 100	–	–	–	–	–	–
CCOC(=O)/C(C(=S)NC)=C(/N)N1CCCC1	> 100	> 100	> 100	> 100	> 100	> 100	> 100	> 100	> 100	> 100	–	–	–	–	–	–
O=C(Nc1ccc(Cl)cc1)c1cc(S(=O)(=O)Nc2n[nH]c(=O)[nH]2)c(SSc2cc(Cl)c(C(=O)Nc3ccc(Cl)cc3)cc2S(=O)(=O)Nc2n[nH]c(=O)[nH]2)cc1Cl	> 100	> 100	> 100	> 100	> 100	> 100	> 100	> 100	> 100	> 100	–	–	–	–	–	–
O=C(N/N=C(/COc1cccc(Cl)c1)N=Cc1ccncc1)c1ccncc1	> 100	> 100	> 100	> 100	> 100	> 100	> 100	> 100	> 100	> 100	–	–	–	–	–	–
O=C1/C(=C/c2ccc(O)cc2)NC(=S)N1CN1CCCCC1	> 100	> 100	> 100	–	> 100	> 100	> 100	> 100	> 100	> 100	–	–	–	–	–	–
OC(c1cc(C(O)(C(F)(F)F)C(F)(F)F)ncn1)(C(F)(F)F)C(F)(F)F	> 10	> 10	> 10	> 10	> 10	–	> 10	> 10	> 10	> 10	–	–	–	–	–	–
CCCCc1ccc(Nc2nc3c(ncn3C3OC(COC(C)=O)C(OC(C)=O)C3OC(C)=O)c(=O)[nH]2)cc1 (stereo not given)	41.2	> 100	32.5	34.3	35.2	> 100	35.1	37.7	45.4	> 100	–	–	–	–	–	–
N#CC12COC3(CCCCC3C1(C#N)C#N)OC2=N (stereo not given)	22.4	48.8	37.2	34.1	–	30.4	22.3	25.3	45.5	> 100	–	–	–	–	–	–
COC(=O)C12CCC(C(=O)OC)(Cc3c(c4ccccc4n3S(=O)(=O)c3ccccc3)C1)C2=O (stereo not given)	> 100	> 100	> 100	> 100	> 100	> 94.6	> 100	> 100	> 100	> 100	–	–	–	–	–	–
Nc1[nH]c(=O)nc2sc3c(c12)CCCC3	> 100	> 100	> 100	> 100	> 100	> 100	> 100	> 100	> 100	> 100	–	–	–	–	–	–
COc1ccc(/C=C2/C(=O)N(C(=O)c3ccccc3O)N=C2C)cc1OC	> 55.6	> 100	–	> 100	> 100	> 100	> 100	> 100	> 100	> 100	–	–	–	–	–	–

SMILES	TGI (M14 melanoma) [µM]	TGI (EKVX NSCLC) [µM]	TGI (NCI-H23 lung) [µM]	TGI (UACC-257 melanoma) [µM]	TGI (KM12 colon) [µM]	TGI (OVCAR-5 ovarian) [µM]	TGI (CCRF-CEM leukemia) [µM]	TGI (SF-268 CNS) [µM]	TGI (U251 CNS) [µM]	TGI (NCI/ADR-RES ovarian) [µM]	GI50 (EKVX NSCLC) [µM]	GI50 (UACC-257 melanoma) [µM]	GI50 (KM12 colon) [µM]	GI50 (OVCAR-5 ovarian) [µM]	GI50 (CCRF-CEM leukemia) [µM]	GI50 (NCI/ADR-RES ovarian) [µM]
O=C1CCc2c3c(c4c([nH]c5ccccc54)c2CC1)C(=O)NC3=O	44.6	> 100	> 100	19.5	18.4	> 100	> 100	> 100	> 100	> 100	–	–	–	–	–	–
CCN(CC)CC(O)c1ccc2ccc3ccccc3c2c1 (stereo not given)	30.9	29.5	37	31.5	29.1	27.5	45.3	34.7	26	33.6	–	–	–	–	–	–
CCN(CC)CCN1c2ccccc2Sc2ccc3ccccc3c21	8.52	20.1	31.9	21.5	19.7	23	15	35.1	22.5	25.6	–	–	–	–	–	–
COc1cc(/C=C2\C(=O)N(c3cccc(Cl)c3)C(c3ccccc3)S2(=O)=O)cc(OC)c1OC (stereo not given)	> 100	> 100	> 100	> 100	> 100	> 100	71.8	> 100	> 100	> 100	–	–	–	–	–	–
CCCCC1Cc2cc(O)ccc2-c2n1c1cc(O)ccc1[n+]2C (stereo not given) (tested in a mixture with another compound)	> 100	> 100	> 76.2	80	> 100	> 100	> 100	> 59.5	> 62.3	> 100	–	–	–	–	–	–
C/C(Cl)=N\OC(=O)Nc1ccc([N+](=O)[O-])cc1	26.1	35.2	49.9	30.9	36.2	30.8	> 100	41.8	33.8	29.3	–	–	–	–	–	–
CCN(CC)CCn1ncc2ccc3c(c(=O)c4cccnc4n3CCN(CC)CC)c21	2.79	6.83	3.05	3.95	4.01	> 7.07	1.82	4.66	6.82	4.86	–	–	–	–	–	–
C1CNCCN2CCCNCCN(C1)CC2	> 100	> 100	> 100	> 100	> 100	> 100	37.9	> 100	> 100	> 100	–	–	–	–	–	–
C=CCCCCOC1C=CC(OC(C)=O)C(COC(C)=O)O1 (stereo not given)	> 100	> 100	> 100	> 100	> 100	> 100	> 100	> 100	> 100	> 100	–	–	–	–	–	–
CCCCCCCCCc1cc(O)c(O)cc1CCCCCCCCC	> 10	> 10	> 10	> 10	> 10	> 10	> 10	> 10	> 10	> 10	–	–	–	–	–	–
CSC1=N/C(=C\c2cccs2)C(=O)N1CN1CCOCC1	> 100	> 100	> 100	–	> 100	> 100	> 100	> 100	> 100	90.5	–	–	–	–	–	–
NS(=O)(=O)c1ccc(NNC(=O)c2cccc3c(=O)c4ccccc4[nH]c23)cc1	> 100	> 100	> 100	> 100	> 100	> 100	> 100	> 100	> 100	> 100	–	–	–	–	–	–
CCN(CC)CCNc1ccc([N+](=O)[O-])c2nc3ccccc3c(N)c12	1.67	2.51	2.03	7.37	1.41	5.26	2.08	3.79	> 10	1.94	–	–	–	–	–	–
Clc1cc2nc(C3CCCO3)[nH]c2cc1Cl (stereo not given)	> 100	> 100	> 100	> 100	> 100	> 100	> 100	> 100	> 100	> 100	–	–	–	–	–	–
CN1CCc2c(sc3nc(Nc4ccccc4)n(N)c(=O)c23)C1	88	> 100	> 100	> 100	> 100	> 100	> 100	> 100	–	> 100	–	–	–	–	–	–
CCOC(=O)C(Cc1ccc2c(c1)CCC2)(Cc1ccc2c(c1)CCC2)C(=O)OCC	> 100	> 100	> 100	> 100	–	> 100	> 100	> 100	> 100	> 100	–	–	–	–	–	–
C=C1C(=O)OC2/C=C(\C)CC/C=C(/C)CC(OC(=O)/C(=C/CO)CO)C12 (stereo not given)	39	–	39.1	36.3	> 100	36.8	> 100	77.5	47	> 100	–	–	–	–	–	–
Cc1ccc2nc3c(C(=O)NCCN(C)C)cccc3cc2c1	–	2.78	4.21	4.56	12.6	5.64	5.28	2.52	11.7	4.25	–	–	–	–	–	–
Oc1c(C(O)(c2ccccc2)c2ccc3ccccc3c2O)ccc2ccccc12	31	50.7	23.1	23.4	25.4	38.3	–	28.4	21.8	43.1	–	–	–	–	–	–
COc1cc(N=C(N)N=C(N)N)c2ncccc2c1	> 100	> 100	> 100	> 100	> 100	> 100	–	> 100	> 100	> 100	–	–	–	–	–	–
C#CCNC(=O)CCC(N)C(=O)O (stereo not given)	–	> 100	> 100	> 100	> 100	> 100	> 100	> 100	> 100	> 100	–	–	–	–	–	–
CCCCCCc1nn2c(-c3ccc(C)cc3)nnc2s1	> 100	> 100	> 100	> 100	> 100	> 100	–	> 100	> 100	> 100	–	–	–	–	–	–
